In patent publication US9994560B2, “HPTP-β inhibitors” (Aerpio Therapeutics Inc., priority 2014, dated 2018):
≈ marks a conversion by molar mass, not a printed value. Where “and” joins values, the source holds several entries; their conditions need not be identical. Identical values can stand only once.

Legend:
Tie2 = Tie2 phosphorylation, immunoprecipitation and western blot in HUVECs; type: cell-based, human; details: HUVECs treated for 10 minutes; anti-phosphotyrosine western blot (FIG. 44)
Description: Human umbilical vein endothelial cells (HUVECs) were isolated freshly from human placenta, grown in endothelial growth medium, and used before passage 6. To evaluate the effects of the compounds on phosphorylation of Tie2 and downstream signaling molecules, cells were serum-starved in endothelial basal medium without added growth factors for 3 hours before stimulation. Cells were treated for 10 minutes with vehicle (DMSO), or compounds A, B, C, or D in DMSO. Cells were lysed in RIPA buffer (150 mM NaCl, 1% IGEPAL CA-630, 0.05% sodium deoxycholate, 0.1% SDS, 20 mM Tris-HCl at pH 7.6, 1 mM EDTA, 1 mM NaF, 1 mM sodium orthovanadate, 5 mM benzamidine) plus complete protease inhibitor cocktail tablets. […] Whole cell lysates were used to quantify phospho-AKT with the PathScan Phospho-Akt1 (Ser473) Sandwich ELISA Kit according to the manufacturer's instructions. Relative AKT phosphorylation in each experiment was quantified by OD450.
FIG. 44 is a western blot of Tie2 immunoprecipitated from endothelial cells treated with DMSO control or the indicated compounds (D, C, B, or A), and then sequentially probed with an anti-Tie2 antibody to detect total Tie2 (lower blot) and an anti-phosphotyrosine antibody to detect phosphorylated Tie2 (upper blot). […] An increase in Tie2 phosphorylation compared to the DMSO control was not detected for compounds A, B, and C.

[1] = system: Akt phosphorylation, a measure of Tie2 activation; experiment: Akt phosphorylation ELISA (PathScan Phospho-Akt1 (Ser473) Sandwich ELISA) in HUVECs; type: cell-based, human; details: 10 minutes
Description: Human umbilical vein endothelial cells (HUVECs) were isolated freshly from human placenta, grown in endothelial growth medium, and used before passage 6. To evaluate the effects of the compounds on phosphorylation of Tie2 and downstream signaling molecules, cells were serum-starved in endothelial basal medium without added growth factors for 3 hours before stimulation. Cells were treated for 10 minutes with vehicle (DMSO), or compounds A, B, C, or D in DMSO. Cells were lysed in RIPA buffer (150 mM NaCl, 1% IGEPAL CA-630, 0.05% sodium deoxycholate, 0.1% SDS, 20 mM Tris-HCl at pH 7.6, 1 mM EDTA, 1 mM NaF, 1 mM sodium orthovanadate, 5 mM benzamidine) plus complete protease inhibitor cocktail tablets. Tie2 was then immunoprecipitated from cell lysates with a mouse monoclonal antibody (clone 33) and probed sequentially with mouse monoclonal anti-phosphotyrosine (clone 4G10) and anti-Tie2 (clone 33). Whole cell lysates were used to quantify phospho-AKT with the PathScan Phospho-Akt1 (Ser473) Sandwich ELISA Kit according to the manufacturer's instructions. Relative AKT phosphorylation in each experiment was quantified by OD450.
FIG. 45 represents data from an ELISA to determine Akt phosphorylation, a measure of Tie2 activation. Consistent with FIG. 44, compound D had the strongest effect on Tie2 activation, as determined by the high levels (OD450=1.2) of relative Akt phosphorylation even at the lowest dose of compound D (1 μg/mL). […] Akt phosphorylation further increased (OD450=0.45) when 10 μg/mL of compound A was used.

[2] = system: human subjects with visual acuity loss due to diabetic macular edema; experiment: Study of human subjects with diabetic macular edema given the compound subcutaneously, then intravitreal anti-VEGF agent; type: in vivo
Description: Described herein is a study of four human subjects with visual acuity loss due to diabetic macular edema (central retinal thickness [CRT] of more than 325 microns and best corrected visual acuity less than 70 letters) that were treated with subcutaneous injections of 5 mg of 4-{(S)-2-[(S)-2-methoxycarbonyl-amino]-3-phenylpropanamido]-2-[2-(thiophen-2-yl)thiazol-4-yl]ethyl}phenylsulfamic acid twice a day for 28 days. […] At any time during the course of the study, investigators could administer additional therapy of intravitreal injection of an anti-VEGF agent, for example, ranibizumab, bevacizumab, and/or aflibercept, if considered by the investigator to be medically necessary. Retinal thickness as measured by ocular coherence tomography and best-corrected visual acuity as measured by a standard vision test (ETDRS) were assessed at regular intervals during the 28 day active treatment phase and through the 2 month post-treatment observation phase, (Screening, Day 1 [baseline], Day 7, Day 14, Day 21, Day 28, Day 42, Day 56 and Day 84). The main efficacy outcomes for the study were change in CRT and visual acuity over time with treatment.
FIG. 47 depicts the results of a study wherein 4 patients received 5 mg of 4-{(S)-2-[(S)-2-methoxycarbonylamino]-3-phenylpropanamido]-2-[2-(thiophen-2-yl)thiazol-4-yl]ethyl}phenylsulfamic acid subcutaneously twice daily for 28 days and subsequently were treated in one or both eyes (7 eyes total) with either ranibizumab (0.3 or 0.5 mg) or aflibercept (2 mg) by intravitreal injection at the discretion of the study investigator.
FIG. 49 depicts the increased visual acuity of a study wherein 4 patients received 5 mg of 4-{(S)-2-[(S)-2-methoxycarbonylamino]-3-phenylpropanamido]-2-[2-(thiophen-2-yl)thiazol-4-yl]ethyl}phenylsulfamic acid subcutaneously twice daily for 28 days, and subsequently were treated with either ranibizumab (0.3 or 0.5 mg) or aflibercept (2 mg) by intravitreal injection at the discretion of the study investigator. FIG. 49 is read as follows. […] The mean change in Visual Acuity was 9 letters, approximately 3 to 5 letters more improvement than seen in the benchmark study of ranibizumab alone depicted in FIG. 48.
FIG. 50 represents the results of a single patient. The eye having the greater Central Foveal Thickness (CFT) was chosen as the study eye. From day 1, the patient was given 5 mg of 4-{(S)-2-[(S)-2-methoxycarbonylamino]-3-phenylpropanamido]-2-[2-(thiophen-2-yl)thiazol-4-yl]ethyl}phenylsulfamic acid subcutaneously twice daily. At week 3 (21 days, indicated by arrow) the fellow eye was treated with 0.5 mg of ranibizumab by injection. At week 6 (42 days, indicated by arrow) the study eye was treated with 0.5 mg of ranibizumab.
FIG. 51 represents the results of a single patient. The eye having the greater CFT was chosen as the Study Eye. The patient from day one was given 5 mg of 4-{(S)-2-[(S)-2-methoxycarbonylamino]-3-phenylpropanamido]-2-[2-(thiophen-2-yl)thiazol-4-yl]ethyl}phenylsulfamic acid subcutaneously twice daily. At week 4 (28 days, indicated by arrow) the fellow eye was rescued with 2 mg of aflibercept. […] At week 6 (42 days, indicated by arrow) the study eye was rescued with 2 mg of aflibercept. […] From onset of the study, a reduction was observed of CFT in the study eye and the fellow eye of approximately 300 μm and 280 μm, respectively.

[3] = Room temperature aqueous solubility with solubilizing agents; type: physicochemical
Excerpt: The room temperature aqueous solubility (mg/mL) of the compound (4-{(S)-2[(S)-2-methoxycarbonylamino]-3-phenylpropanamido]-2-[2-(thiophen-2-yl)thiazol-4-yl]ethyl}phenylsulfamic acid) in water, HPβCD, Poloxamer 407, and sulfobutylether-β-cyclodextrin, is provided in TABLE III. Solubility in saline for the test compound is reduced presumably due to the common ion effect. All the solubilizing agents tested provided good improvements in aqueous solubility of the test compound.
The solubility (mg/mL) of the test compound in mixtures of HPβCD and PEG400 is illustrated in TABLE IV. Use of either HPβCD or PEG400 individually provided an increase in solubility. However, addition of PEG400 to a mixture of the test compound and HPβCD caused an erosion of solubility, with solubility being inversely proportional to the amount of PEG400.

COC(=O)N[C@@H](Cc1ccccc1)C(=O)N[C@@H](Cc1ccc(NS(=O)(=O)O)cc1)c1csc(-c2cccs2)n1 [Compound D]
Tie2 phosphorylation compared to the DMSO control (Tie2): substantial increase
relative Akt phosphorylation (OD450) ([1]; 1 μg/mL): 1.2
relative Akt phosphorylation (OD450) ([1]; 3 μg/mL): 3.1
relative Akt phosphorylation (OD450) ([1]; 10 μg/mL): did not increase further
Central Foveal Reduction, individual patient eyes ([2]; 5 mg sc twice daily 28 days, then ranibizumab or aflibercept intravitreal, 14-28 days post anti-VEGF (FIG. 47), listed as 4-{(S)-2-[(S)-2-methoxycarbonylamino]-3-phenylpropanamido]-2-[2-(thiophen-2-yl)t): 50-100 μm and 150-200 μm and 200-250 μm and 300-350 μm and 350-400 μm and 450-500 μm
improvement of visual acuity ([2]; 5 mg subcutaneously twice a day for 28 days, observed days 28 through 84): Improvement of visual acuity in these subjects was observed
reduction in Central Foveal Thickness relative to ranibizumab injection in the study in FIG. 46 ([2]; compound sc then anti-VEGF versus ranibizumab alone): approximately double
fall in CFT of the fellow eye ([2]; single patient (FIG. 50), 5 mg sc twice daily, fellow eye given 0.5 mg ranibizumab at week 3, by week 4): 350 μm
reduction in CFT in the study eye ([2]; single patient (FIG. 50), day 21 to day 28, after ranibizumab to fellow eye): approximately 250 μm
CFT of the study eye ([2]; single patient (FIG. 50), week 6, before ranibizumab to study eye): approximately 775 μm
CFT of the study eye ([2]; single patient (FIG. 50), week 8): approximately 225 μm
reduction of CFT in the fellow eye from onset of the study ([2]; single patient (FIG. 51)): ~280 μm
Solubility ([3]; 0% HPβCD, 15% PEG400): 30 mg/mL (≈ 51.1 mM)
Solubility ([3]; 0% HPβCD, 30% PEG400): 68 mg/mL (≈ 116 mM)
Solubility ([3]; 15% HPβCD, 0% PEG400): 59 mg/mL (≈ 101 mM)
Solubility ([3]; 15% HPβCD, 5% PEG400): 57 mg/mL (≈ 97.2 mM)
Solubility ([3]; 15% HPβCD, 10% PEG400): 34 mg/mL (≈ 57.9 mM)
Solubility ([3]; 15% HPβCD, 15% PEG400): 6 mg/mL (≈ 10.2 mM)
